Experimental data from the NIST ThermoML archive (doi:10.1021/je3007953).
Numbers after ± are expanded uncertainties.

Key:
[1] = xn = mol fraction of the nth substance listed; settings: Liquid, Vibrating tube method
[2] = molar heat capacity at constant pressure; xn = mol fraction of the nth substance listed; settings: Liquid, Small sample (50 mg) DSC

C[n+]1ccn(CCO)c1.[Cl-] [1-(2-hydroxyethyl)-3-methyl-1H-imidazolium chloride] + O
Settings | mass density, x1 = 0.0122 [kg/m3] | mass density, x1 = 0.0453 [kg/m3] | mass density, x1 = 0.0997 [kg/m3] | mass density, x1 = 0.2054 [kg/m3] | mass density, x1 = 0.3071 [kg/m3] | molar heat capacity at constant pressure, x1 = 0.0122 [J/K/mol] | molar heat capacity at constant pressure, x1 = 0.0453 [J/K/mol] | molar heat capacity at constant pressure, x1 = 0.0997 [J/K/mol] | molar heat capacity at constant pressure, x1 = 0.2054 [J/K/mol] | molar heat capacity at constant pressure, x1 = 0.3071 [J/K/mol]
[1], 298.15 K | 1016.85 ± 0.27 | 1059.73 ± 0.22 | 1107.52 ± 0.16 | 1136.95 ± 0.15 | 1187.93 ± 0.15 | – | – | – | – | –
[1], 303.15 K | 1015.23 ± 0.27 | 1057.69 ± 0.22 | 1105.14 ± 0.13 | 1134.43 ± 0.13 | 1185.25 ± 0.15 | – | – | – | – | –
[1], 308.15 K | 1013.43 ± 0.26 | 1055.55 ± 0.21 | 1102.71 ± 0.13 | 1131.88 ± 0.13 | 1182.56 ± 0.15 | – | – | – | – | –
[1], 313.15 K | 1011.46 ± 0.26 | 1053.3 ± 0.2 | 1100.22 ± 0.13 | 1129.28 ± 0.13 | 1179.87 ± 0.15 | – | – | – | – | –
[1], 318.15 K | 1009.27 ± 0.26 | 1050.94 ± 0.21 | 1097.68 ± 0.12 | 1126.66 ± 0.12 | 1177.16 ± 0.15 | – | – | – | – | –
[1], 323.15 K | 1005.9 ± 0.27 | 1048.46 ± 0.22 | 1095.08 ± 0.18 | 1123.99 ± 0.13 | 1174.45 ± 0.15 | – | – | – | – | –
[2], 298.15 K | – | – | – | – | – | 75.34 ± 1.2 | 79.99 ± 1.3 | 88.41 ± 1.4 | 107.22 ± 1.7 | 124.59 ± 1.9
[2], 303.15 K | – | – | – | – | – | 75.7 ± 1.2 | 80.58 ± 1.3 | 89.25 ± 1.4 | 108.22 ± 1.7 | 125.97 ± 1.9
[2], 308.15 K | – | – | – | – | – | 76.07 ± 1.2 | 81.14 ± 1.3 | 90.1 ± 1.4 | 109.32 ± 1.7 | 127.4 ± 2
[2], 313.15 K | – | – | – | – | – | 76.41 ± 1.2 | 81.68 ± 1.3 | 90.91 ± 1.4 | 110.27 ± 1.7 | 128.97 ± 2
[2], 318.15 K | – | – | – | – | – | 76.86 ± 1.2 | 82.39 ± 1.3 | 91.91 ± 1.4 | 111.66 ± 1.7 | 130.65 ± 2
[2], 323.15 K | – | – | – | – | – | 77.24 ± 1.2 | 83.01 ± 1.3 | 92.79 ± 1.4 | 112.94 ± 1.8 | 132.15 ± 2.1
[2], 328.15 K | – | – | – | – | – | 77.61 ± 1.2 | 83.57 ± 1.3 | 93.66 ± 1.5 | 114.19 ± 1.8 | 133.71 ± 2.1
[2], 333.15 K | – | – | – | – | – | 77.97 ± 1.2 | 84.16 ± 1.3 | 94.54 ± 1.5 | 115.52 ± 1.8 | 135.39 ± 2.1
[2], 338.15 K | – | – | – | – | – | 78.39 ± 1.2 | 84.85 ± 1.3 | 95.51 ± 1.5 | 117 ± 1.8 | 137.33 ± 2.1
[2], 343.15 K | – | – | – | – | – | 78.9 ± 1.2 | 85.64 ± 1.3 | 96.65 ± 1.5 | 118.67 ± 1.9 | 139.45 ± 2.2
[2], 348.15 K | – | – | – | – | – | 79.24 ± 1.2 | 86.2 ± 1.3 | 97.49 ± 1.5 | 120.06 ± 1.9 | 141.39 ± 2.2
[2], 353.15 K | – | – | – | – | – | 79.67 ± 1.2 | 86.89 ± 1.4 | 98.46 ± 1.5 | 121.68 ± 1.9 | 143.57 ± 2.2
